# Laboratory results reported in PMC7255104, “Receptor Characterization and Functional Activity of Pyrokinins on the Hindgut in the Adult Mosquito, Aedes aegypti” (Frontiers in Physiology, 2020).
# Where a SMILES comes first, the peptide text is derived from it. [ ]: non-standard residue; d: D form. pGlu = O=C1CC[C@@H](C(=O)O)N1
# How the values were obtained:
# [1] = test system: isolated recta of A. aegypti; experiment: Rectal contraction assay (impedance converter); set-up: species or system Aedes aegypti; conditions: 1 μM, 2-min interval, mean of 6-18 preparations
# Method: Hindgut contraction assays were conducted on isolated […] of female A. aegypti. […] The isolated tissue was secured with minutien pins within a Sylgard-lined petri-dish. Given its high sequence similarity to endogenous A. aegypti PK2 peptides (Supplementary Table S1), we used the R. prolixus PK2b peptide ([Paluzzi and O'Donnell, 2012]), henceforth referred to as RhoprPK2b, for motility bioassays. Commercially synthesized peptides (Genscript, Piscataway, NJ, United States), […] ([…]) and RhoprPK2[…]), were used to examine myomodulatory activity. […] To assess whether PK1 peptides plays a role in regulating rectal motility, contractions were monitored in saline to obtain baseline contraction rates and subsequently following […] or 5-HT treatments, using probes connected to an impedance converter (UFI model 2991, Morro Bay, CA, United States) connected to a Powerlab 4/30 and laptop computer running LabChart […].0 software (AD Instruments, Colorado Springs, CO, United States). […] Probes were positioned on either side of the rectum by observation with a dissecting microscope (Olympus SZ61), and contractile responses were recorded on LabChart […].0 software (AD Instruments, Colorado Springs, CO, United States). Contractions were monitored for two minutes prior to, and after the addition of either […] or 5-HT. […]
# [2] = test system: isolated ilea of female A. aegypti; experiment: Ileal motility assay (video recordings); set-up: species or system Aedes aegypti; conditions: Figure 6, 1 μM, 5-HT added together with 1 μM RhoprPK2b
# Method: Hindgut contraction assays were conducted on isolated […] of female A. aegypti. […] The isolated tissue was secured with minutien pins within a Sylgard-lined petri-dish. Given its high sequence similarity to endogenous A. aegypti PK2 peptides (Supplementary Table S1), we used the R. prolixus PK2b peptide ([Paluzzi and O'Donnell, 2012]), henceforth referred to as RhoprPK2b, for motility bioassays. Commercially synthesized peptides (Genscript, Piscataway, NJ, United States), […] ([…]) and RhoprPK2[…]), were used to examine myomodulatory activity. Serotonin (5-hydroxytryptamine, 5-HT; Sigma-Aldrich, Oakville, ON, Canada), previously shown to stimulate A. aegypti hindgut contractions ([Messer and Brown, 1995]), was used as a stimulatory control. Given the inhibitory properties of myoinhibitory peptides (having the consensus W(X6)W-NH2 carboxyl terminus) on insect hindgut motility ([Lange et al., 2012]), RhoprMIP-7 ([…]; Genscript, Piscataway, NJ, United States; [Paluzzi et al., 2015]) was used as an inhibitory control. […] Unlike the rectum, the mosquito ileum produces weaker contractions that we were unable to measure using an impedance converter as described above. […] The dissected gut was pinned in the midgut and rectum to allow the ileum to freely contract in saline and following treatments. Contractions were recorded for 2 min in saline that was used for baseline activity measurements, followed by three subsequent 2-min recordings, including: […] The RhoprPK2b was added along with the stimulatory or inhibitory compound (5-HT or RhoprMIP-7, respectively), to maintain its 1 μM concentration in the bath. […] To account for any potential changes in tissue contractile activity upon adding solutions to the bath, each of these variables were measured relative to baseline saline recordings of the same preparation as a ratio of change, where a value above or below one indicates an increase or a decrease, (respectively), in the rate, duration or length between each contraction in response to the treatment.
# A. aegypti PK1-R = experiment: Heterologous functional receptor assay (aequorin bioluminescence), PK1-R; format: cell-based, Aedes aegypti; conditions: CHO-K1 cells expressing PK1-R; luminescent response
# From the text: The complete open reading frame was amplified based on the partial ([Nene et al., 2007]) and complete sequences ([Choi et al., 2013]) reported earlier for the A. aegypti PK1-R (Genbank accession: EAT35008.1) and PK2-R (Genbank accession: KC155994.1). Forward 5′-[…]-3′ (PK1-R) or 5′-[…]-3′ (PK2-R) and reverse 5′-[…]-3′ (PK1-R) or 5′-[…]-3′ (PK2-R) primers were designed over the start and stop codons (underlined), respectively, and used to amplify the complete coding sequence using Q5 High-Fidelity DNA polymerase following manufacturer recommendations (New England Biolabs, Whitby, ON). […] The resulting products were cloned into pGEM-T Easy sequencing vector, and miniprep samples were sequenced to verify base accuracy. […]
# Chinese hamster ovary cells (CHO-K1) described previously ([Paluzzi et al., 2012]; [Gondalia et al., 2016]; [Wahedi and Paluzzi, 2018]) were grown in Dulbecco’s modified eagles medium: nutrient F12 (DMEM:F12) media containing 10% heat-inactivated fetal bovine serum (FBS; Wisent, St. Bruno, QC, Canada), 200 μg/mL geneticin, and antimycotic-antibiotic mixture as described previously ([Wahedi and Paluzzi, 2018]). […] Various concentrations of synthesized PK peptides and other peptides (purity > 90%; Genscript, Piscataway, NJ, United States) were prepared in BSA media and loaded in quadruplicate into white 96-well luminescence plates (Greiner Bio-One, Germany). […]
# A. aegypti PK2-R = target: T1, A. aegypti PK2-R (Aedes aegypti, UniProt V9P4J1); experiment: Heterologous functional receptor assay (aequorin bioluminescence), PK2-R; format: cell-based; conditions: CHO-K1 cells expressing PK2-R
# T1 sequence (V9P4J1 1-638): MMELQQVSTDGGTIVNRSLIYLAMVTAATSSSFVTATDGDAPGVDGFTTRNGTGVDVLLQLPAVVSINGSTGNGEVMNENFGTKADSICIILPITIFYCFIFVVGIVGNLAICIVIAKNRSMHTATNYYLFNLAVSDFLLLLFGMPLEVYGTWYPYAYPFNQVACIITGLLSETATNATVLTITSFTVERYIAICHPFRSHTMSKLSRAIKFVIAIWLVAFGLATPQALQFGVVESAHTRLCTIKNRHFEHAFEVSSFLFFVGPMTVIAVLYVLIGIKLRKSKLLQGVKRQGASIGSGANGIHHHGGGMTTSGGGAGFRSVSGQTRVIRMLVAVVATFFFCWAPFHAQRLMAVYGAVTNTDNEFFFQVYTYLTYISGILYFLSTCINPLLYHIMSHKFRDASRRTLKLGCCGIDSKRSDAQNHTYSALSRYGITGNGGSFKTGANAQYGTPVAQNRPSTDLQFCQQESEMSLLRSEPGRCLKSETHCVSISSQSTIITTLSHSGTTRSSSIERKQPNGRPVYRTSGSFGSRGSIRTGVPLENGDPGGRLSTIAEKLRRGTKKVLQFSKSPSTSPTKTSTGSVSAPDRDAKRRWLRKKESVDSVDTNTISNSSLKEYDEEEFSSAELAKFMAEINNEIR
# From the text: The complete open reading frame was amplified based on the partial ([Nene et al., 2007]) and complete sequences ([Choi et al., 2013]) reported earlier for the A. aegypti PK1-R (Genbank accession: EAT35008.1) and PK2-R (Genbank accession: KC155994.1). Forward 5′-[…]-3′ (PK1-R) or 5′-[…]-3′ (PK2-R) and reverse 5′-[…]-3′ (PK1-R) or 5′-[…]-3′ (PK2-R) primers were designed over the start and stop codons (underlined), respectively, and used to amplify the complete coding sequence using Q5 High-Fidelity DNA polymerase following manufacturer recommendations (New England Biolabs, Whitby, ON). […] The resulting products were cloned into pGEM-T Easy sequencing vector, and miniprep samples were sequenced to verify base accuracy. The receptor constructs were excised using standard restriction enzyme digestion and subcloned into the mammalian expression vector, pcDNA 3.1^+ (Life Technologies, Burlington, ON, Canada). Transfection quality plasmid DNA was purified from an overnight bacterial culture using the PureLink MidiPrep Kit (Invitrogen, Burlington, ON, Canada) following manufacturer guidelines.
# Chinese hamster ovary cells (CHO-K1) described previously ([Paluzzi et al., 2012]; [Gondalia et al., 2016]; [Wahedi and Paluzzi, 2018]) were grown in Dulbecco’s modified eagles medium: nutrient F12 (DMEM:F12) media containing 10% heat-inactivated fetal bovine serum (FBS; Wisent, St. Bruno, QC, Canada), 200 μg/mL geneticin, and antimycotic-antibiotic mixture as described previously ([Wahedi and Paluzzi, 2018]). […] Various concentrations of synthesized PK peptides and other peptides (purity > 90%; Genscript, Piscataway, NJ, United States) were prepared in BSA media and loaded in quadruplicate into white 96-well luminescence plates (Greiner Bio-One, Germany).
# Luminescence responses to A. aegypti CAPA-1 (GPTVGLFAFPRV-NH2), CAPA-2 (pQGLVPFPRV-NH2) and CAPA-PK1 (AGNSGANSGMWFGPRL-NH2) peptides, along with the R. prolixus PK2 orthologs, PK2a (NTVNFSPRL-NH2), and PK2b (SPPFAPRL-NH2) were examined. A list of peptides used in this study and sequence comparison to native A. aegypti pyrokinin peptides is found in Supplementary Table S1. Cells prepared for the functional assay were loaded into each well of the plate using an automated injector unit and luminescent response was measured with a Synergy 2 Multi-Mode Microplate Reader (BioTek, Winooski, VT, United States). Negative controls were carried out using BSA media alone whereas 50 μM ATP, which activates endogenously expressed purinoceptors ([Iredale and Hill, 1993]; [Michel et al., 1998]), was used as a positive control. Luminescence responses were normalized to ATP responses and analyzed in GraphPad Prism 7.02 (GraphPad Software, San Diego, CA, United States). EC50 values were determined using dose-response curves from multiple biological replicates.
# [3] = test system: anti-RhoprCAPA-2 primary antiserum (antigen EGGFISFPRV-NH2); experiment: Competitive ELISA for antibody cross-reactivity; format: binding, rabbit; conditions: antiserum 1:1000; absorbance at 450 nm; mean ± SEM, n = 4; read-out: IC50, competitive ELISA against 1 nM biotinylated-DromeCAPA
# Method: In brief, 96-well plates were coated with anti-RhoprCAPA-2 primary antiserum diluted to 1:1000 in carbonate buffer (15 mM Na2CO3-H2O and 35 mM NaHCO3 in water; pH 9.4) and incubated overnight at 4°C. Plate contents were discarded, blotted, and rinsed three times with wash buffer (350 mM NaCl, 2.7 mM KCl, 1.5 mM KH2PO4, 5.15 mM Na2HPO4-H2O, and 0.05% Tween-20 (v/v) in water). Wells were then incubated for 1.5 h on a rocker with block buffer [0.5% skim milk powder (w/v) and 0.5% BSA (w/v) in PBS]. The block solution was discarded, and standard solutions were added (100 μL/well). Standards consisted of AedaeCAPA-1 and AedaeCAPA-2 diluted in block buffer to achieve concentrations ranging from 250 pM to 250 nM, or AedaeCAPA-PK1 and RhoprPK2b from 4.8 nM to 75 uM. After a 1.5 h incubation on a rocker, 1 nM biotinylated-DromeCAPA diluted in block buffer ([MacMillan et al., 2018]) was added (100 μL/well) to compete with the unlabeled peptide standards for antibody binding. Following overnight incubation at 4°C, the wells were washed four times with wash buffer, and incubated at 4°C for 1.5 h with Avidin-HRP (1:2000; Bio-Rad, Mississauga, ON, Canada). […] Reactions were stopped with 100 μL/well 2N HCl and absorbance at 450 nm was measured using a Synergy 2 Multi-Mode Microplate Reader (BioTek, Winooski, VT, United States).
Compound,fold change in contraction rate of female recta relative to baseline in saline ([1]; female recta) [fold],fold change in contraction rate of male recta relative to baseline in saline ([1]; male recta) [fold],"ileal contraction frequency relative to baseline ([2]; 2-min recordings, mean of 15 preparations) [fold]",duration of each ileal contraction relative to baseline ([2]; 15 preparations),length of time between ileal contractions relative to baseline ([2]; 15 preparations),activation of PK1-R (in words) (A. aegypti PK1-R),activation of PK2-R (in words) (A. aegypti PK2-R; luminescent response),activation of PK2-R relative to the highly potent pyrokinins (A. aegypti PK2-R; very high concentrations) [%],IC50 [3] [nM]
"NCCc1c[nH]c2ccc(O)cc12 [5-HT, 5-hydroxytryptamine]",1.97,2.48,2.88,effectively reduced,effectively reduced,,,,
CC(C)C[C@H](NC(=O)CNC(=O)[C@@H]1CCC(=O)N1)C(=O)N[C@H](C(=O)N1CCC[C@H]1C(=O)N[C@@H](Cc1ccccc1)C(=O)N1CCC[C@H]1C(=O)N[C@@H](CCCNC(=N)N)C(=O)N[C@H](C(N)=O)C(C)C)C(C)C [AedaeCAPA-2] ([pGlu]GLVPFPRV-NH2),,,,,,effective in activating PK1-R at high concentrations,only active on PK2-R at very high concentrations,≤ 25,16.9
